Measurements: US11667649B2, “Heteroaromatic macrocyclic ether chemotherapeutic agents” (Nuvalent, Inc., priority 2020, dated 2023)

System: TPM3-NTRK1-wt IC50 / primary target (e.g. CD74-ROS1-wt) IC50, Ba/F3 cells
Experiment: Cell assay TRKA selectivity (TRKA potency divided by primary target potency)
Type: cell-based
Conditions: for TPM3-NTRK1-wt/CD74-ROS1-G2032R: TRKA selectivity ratio: TPM3-NTRK1-wt IC50 / CD74-ROS1-G2032R IC50, Ba/F3 cells; for TPM3-NTRK1-wt/CD74-ROS1-wt: TRKA selectivity ratio: TPM3-NTRK1-wt IC50 / CD74-ROS1-wt IC50, Ba/F3 cells; for TPM3-NTRK1-wt/EML4-ALK-L1196M-G1202R: TRKA selectivity ratio: TPM3-NTRK1-wt IC50 / EML4-ALK-L1196M-G1202R IC50, Ba/F3 cells; for TPM3-NTRK1-wt/EML4-ALK-wt: TRKA selectivity ratio: TPM3-NTRK1-wt IC50 / EML4-ALK-wt IC50, Ba/F3 cells
Description: Genes encoding CD74-ROS1 wild-type (wt), CD74-ROS1 G2032R, CD74-ROS1 S1986F, CD74-ROS1 L2026M, CD74-ROS1 D2033N, EML4-ALK wt (variant 1), EML4-ALK G1202R (variant 1), EML4-ALK L1196M/G1202R (variant 1), EML4-ALK G1202R/G1269A (variant 1), EML4-ALK G1202R/L1198F (variant 1), and TPM3-TRKA were synthesized at GeneRay, cloned into the retroviral construct pMSCV-puro (Biovector), and packaged into retroviral particles. The virus was used to infect Ba/F3 cells (RIKEN) at multiplicity of infection=1 for 1 day. Infected cells were rescued in media (RPMI-1640 with 10% fetal bovine serum and 1% streptomycin and penicillin) supplemented with mouse IL-3 (10 ng/mL) for 2 days, and stable cell lines were selected by IL-3 withdrawal and puromycin (0.8 μg/mL) for 7 days. Monoclones were selected by single-cell dilution in IL-3-free medium containing puromycin (0.8 μg/mL). Transformation of desired genes was confirmed by Sanger sequencing and western blot using the following antibodies: ROS1 (CST #3287), ALK (CST #3633), and pan-TRK (Abcam #76291).
Stable cells were plated at 1,000 cells/well (40 μL) in a 384-well plate for 1 day. Test compounds (40 nL) were then added in a 3-fold dilution series using the TECAN EVO200 liquid handler and incubated for 72 hours. Plates were equilibrated at room temperature for 15 minutes followed by addition of 40 μL CellTiter-Glo reagent (Promega). Luminescence was measured on a plate reader. Half-maximal inhibitory concentration (IC50) was calculated from percent inhibition and inhibitor concentration using four-parameter logistic regression. […] Exemplary data is given in Table 4 (nd is not determined).
TRKA selectivity was calculated by dividing a compound's TRKA potency by its primary target potency (e.g. TPM3-NTRK1-wt IC50/CD74-ROS1-wt IC50). Compound selectivity can be interpreted by binning ratio values: bin A for very high selectivity, ratio>30-fold; bin B for high selectivity, ratio>10-fold; bin C for moderate selectivity, ratio≥1; and bin D for low selectivity, ratio<1. […] (nd=not determined).

SMILES	TPM3-NTRK1-wt/CD74-ROS1-G2032R	TPM3-NTRK1-wt/CD74-ROS1-wt	TPM3-NTRK1-wt/EML4-ALK-L1196M-G1202R	TPM3-NTRK1-wt/EML4-ALK-wt
Cc1nc2c(s1)Cn1ncc(C(F)F)c1-c1cnc(N)c(c1)O[C@H](C)c1cc(F)ccc1-2 [Example 68, (19R)-3-(difluoromethyl)-16-fluoro-10,19-dimethyl-20-oxa-9-thia-5,6,11,23-tetraazapentacyclo[19.3.1.0^2,^6.0^8,^12.0^13,^18]pentacosa-1(24),2,4,8(12),10,13,15,17,21(25),22-decaen-22-amine]	B (bin B for high selectivity, ratio>10-fold)	A (bin A for very high selectivity, ratio>30-fold)	C (bin C for moderate selectivity, ratio≥1)	B (bin B for high selectivity, ratio>10-fold)
C[C@H]1Oc2cc(cnc2N)-c2c(CC(F)F)noc2Cc2cn(C)nc2-c2ccc(F)cc21 [Example 85, (19R)-3-(2,2-difluoroethyl)-16-fluoro-10,19-dimethyl-5,20-dioxa-4,10,11,23-tetraazapentacyclo[19.3.1.0^2,^6.0^8,^12.0^13,^18]pentacosa-1(24),2(6),3,8,11,13,15,17,21(25),22-decaen-22-amine]	A (bin A for very high selectivity, ratio>30-fold)	A (bin A for very high selectivity, ratio>30-fold)	C (bin C for moderate selectivity, ratio≥1)	A (bin A for very high selectivity, ratio>30-fold)
Cc1nn(CC2CC2)c2c1Cc1c(nn(C)c1Cl)-c1ccc(F)cc1[C@@H](C)Oc1cc-2cnc1N [Example 54, (19R)-9-chloro-3-(cyclopropylmethyl)-16-fluoro-5,10,19-trimethyl-20-oxa-3,4,10,11,23-pentaazapentacyclo[19.3.1.0^2,^6.0^8,^12.0^13,^18]pentacosa-1(24),2(6),4,8,11,13,15,17,21(25),22-decaen-22-amine]	A (bin A for very high selectivity, ratio>30-fold)	A (bin A for very high selectivity, ratio>30-fold)	B (bin B for high selectivity, ratio>10-fold)	A (bin A for very high selectivity, ratio>30-fold)
CCn1nc(OC)c2c1-c1cnc(N)c(c1)O[C@H](C)c1cc(F)ccc1-n1nc(C(F)F)cc1C2 [Example 147, (19R)-10-(difluoromethyl)-3-ethyl-16-fluoro-5-methoxy-19-methyl-20-oxa-3,4,11,12,23-pentaazapentacyclo[19.3.1.0^2,^6.0^8,^12.0^13,^18]pentacosa-1(24),2(6),4,8,10,13,15,17,21(25),22-decaen-22-amine]	A (bin A for very high selectivity, ratio>30-fold)	A (bin A for very high selectivity, ratio>30-fold)	C (bin C for moderate selectivity, ratio≥1)	A (bin A for very high selectivity, ratio>30-fold)
C[C@H]1Oc2cc(cnc2N)-c2c(cnn2CC2CC2)Cc2cn(C)nc2-c2ccc(F)cc21 [Example 121, (19R)-3-(cyclopropylmethyl)-16-fluoro-10,19-dimethyl-20-oxa-3,4,10,11,23-pentaazapentacyclo[19.3.1.0^2,^6.0^8,^12.0^13,^18]pentacosa-1(24),2(6),4,8,11,13,15,17,21(25),22-decaen-22-amine]	A (bin A for very high selectivity, ratio>30-fold)	A (bin A for very high selectivity, ratio>30-fold)	A (bin A for very high selectivity, ratio>30-fold)	A (bin A for very high selectivity, ratio>30-fold)
CCn1nc(C(F)(F)F)c2c1-c1cnc(N)c(c1)O[C@H](C)c1cc(F)ccc1-c1nn(C)cc1C2 [Example 96, (19R)-3-ethyl-16-fluoro-10,19-dimethyl-5-(trifluoromethyl)-20-oxa-3,4,10,11,23-pentaazapentacyclo[19.3.1.0^2,^6.0^8,^12.0^13,^18]pentacosa-1(24),2(6),4,8,11,13,15,17,21(25),22-decaen-22-amine]	A (bin A for very high selectivity, ratio>30-fold)	A (bin A for very high selectivity, ratio>30-fold)	C (bin C for moderate selectivity, ratio≥1)	A (bin A for very high selectivity, ratio>30-fold)
CCn1ncc2c1-c1cnc(N)c(c1)O[C@H](C)c1cc(F)ccc1-c1nn(C)c(Cl)c1C2 [Example 28, (19R)-9-chloro-3-ethyl-16-fluoro-10,19-dimethyl-20-oxa-3,4,10,11,23-pentaazapentacyclo[19.3.1.0^2,^6.0^8,^12.0^13,^18]pentacosa-1(24),2(6),4,8,11,13,15,17,21(25),22-decaen-22-amine]	A (bin A for very high selectivity, ratio>30-fold)	A (bin A for very high selectivity, ratio>30-fold)	C (bin C for moderate selectivity, ratio≥1)	A (bin A for very high selectivity, ratio>30-fold)
Cc1nn(CC2CC2)c2c1Cc1cn(C)nc1-c1ccc(F)cc1[C@@H](C)Oc1cc-2cnc1N [Example 53, (19R)-3-(cyclopropylmethyl)-16-fluoro-5,10,19-trimethyl-20-oxa-3,4,10,11,23-pentaazapentacyclo[19.3.1.0^2,^6.0^8,^12.0^13,^18]pentacosa-1(24),2(6),4,8,11,13,15,17,21(25),22-decaen-22-amine]	A (bin A for very high selectivity, ratio>30-fold)	A (bin A for very high selectivity, ratio>30-fold)	A (bin A for very high selectivity, ratio>30-fold)	A (bin A for very high selectivity, ratio>30-fold)
CCc1noc2c1-c1cnc(N)c(n1)O[C@H](C)c1cc(F)ccc1-c1nn(C)cc1C2 [Example 162, (19R)-3-ethyl-16-fluoro-10,19-dimethyl-5,20-dioxa-4,10,11,23,25-pentaazapentacyclo[19.3.1.0^2,^6.0^8,^12.0^13,^18]pentacosa-1(24),2(6),3,8,11,13,15,17,21(25),22-decaen-22-amine]	B (bin B for high selectivity, ratio>10-fold)	A (bin A for very high selectivity, ratio>30-fold)	C (bin C for moderate selectivity, ratio≥1)	A (bin A for very high selectivity, ratio>30-fold)
C[C@H]1Oc2cc(cnc2N)-c2c(C#N)nn(C)c2Cc2cn(C)nc2-c2ccc(F)cc21 [Example 21, (19R)-22-amino-16-fluoro-5,10,19-trimethyl-20-oxa-4,5,10,11,23-pentaazapentacyclo[19.3.1.0^2,^6.0^8,^12.0^13,^18]pentacosa-1(24),2(6),3,8,11,13,15,17,21(25),22-decaene-3-carbonitrile]	A (bin A for very high selectivity, ratio>30-fold)	A (bin A for very high selectivity, ratio>30-fold)	B (bin B for high selectivity, ratio>10-fold)	A (bin A for very high selectivity, ratio>30-fold)
Cc1nn(CC(F)F)c2c1Cc1cn(C)nc1-c1ccc(F)cc1[C@@H](C)Oc1cc-2cnc1N [Example 79, (19R)-3-(2,2-difluoroethyl)-16-fluoro-5,10,19-trimethyl-20-oxa-3,4,10,11,23-pentaazapentacyclo[19.3.1.0^2,^6.0^8,^12.0^13,^18]pentacosa-1(24),2(6),4,8,11,13,15,17,21(25),22-decaen-22-amine]	A (bin A for very high selectivity, ratio>30-fold)	A (bin A for very high selectivity, ratio>30-fold)	A (bin A for very high selectivity, ratio>30-fold)	A (bin A for very high selectivity, ratio>30-fold)
C[C@H]1Oc2cc(cnc2N)-c2c(nn(C)c2C#N)Cc2cn(C)nc2-c2ccc(F)cc21 [Example 111, (19R)-22-amino-16-fluoro-4,10,19-trimethyl-20-oxa-4,5,10,11,23-pentaazapentacyclo[19.3.1.0^2,^6.0^8,^12.0^13,^18]pentacosa-1(24),2,5,8,11,13,15,17,21(25),22-decaene-3-carbonitrile]	B (bin B for high selectivity, ratio>10-fold)	A (bin A for very high selectivity, ratio>30-fold)	C (bin C for moderate selectivity, ratio≥1)	A (bin A for very high selectivity, ratio>30-fold)
